Results taken from US12590071B2, “Hydrazone derivative in which terminal amine group is substituted with aryl group or heteroaryl group, and use thereof” (KOREA INSTITUTE OF SCIENCE AND TECHNOLOGY, priority 2018, dated 2026).

What was measured:
[1] = molecular target: T1, tau protein (Homo sapiens, UniProt P10636); experiment: Tau protein aggregation inhibition in tau-BiFC cell model; assay type: cell-based; details: tau-BiFC cells treated together with Forskolin, 48 hours
T1 construct: expressed in transfected cells
T1 sequence (P10636 2-441 isoform P10636-8 limits assumed): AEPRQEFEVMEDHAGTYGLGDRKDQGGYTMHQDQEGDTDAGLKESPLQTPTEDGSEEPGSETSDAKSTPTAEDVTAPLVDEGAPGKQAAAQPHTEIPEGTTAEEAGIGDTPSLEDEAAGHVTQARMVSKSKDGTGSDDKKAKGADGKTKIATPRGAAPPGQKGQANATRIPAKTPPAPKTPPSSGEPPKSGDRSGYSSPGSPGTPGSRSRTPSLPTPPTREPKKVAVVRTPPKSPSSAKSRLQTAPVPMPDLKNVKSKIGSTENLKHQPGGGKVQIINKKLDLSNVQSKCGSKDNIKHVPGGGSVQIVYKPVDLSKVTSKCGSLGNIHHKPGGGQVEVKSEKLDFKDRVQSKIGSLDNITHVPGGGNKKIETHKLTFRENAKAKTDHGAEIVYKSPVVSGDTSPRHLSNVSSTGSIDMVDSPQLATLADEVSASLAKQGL
Summary of the method: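 Tau-BiFC cells co-treated 48 h with Forskolin ([…]) and compound at 0.03–30 μM. BiFC fluorescence quantified by imaging, IC50 by nonlinear regression; cytotoxicity as Hoechst-stained nuclei count relative to Forskolin-only wells (100% survival).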

[2] = molecular target: T2, CYP3A4 (Homo sapiens, UniProt P08684); experiment: Inhibition of CYP coenzyme activity in human liver microsomes; assay type: in vitro ADME; set-up: scale not given here; details: compound 10 PM (so in the source); human liver microsomes 0.25 mg/mL; substrate midazolam; 15 minutes
T2 construct: human liver microsomes (0.25 mg/mL); from tissue; host or cells: human liver microsomes
T2 sequence (P08684 whole entry): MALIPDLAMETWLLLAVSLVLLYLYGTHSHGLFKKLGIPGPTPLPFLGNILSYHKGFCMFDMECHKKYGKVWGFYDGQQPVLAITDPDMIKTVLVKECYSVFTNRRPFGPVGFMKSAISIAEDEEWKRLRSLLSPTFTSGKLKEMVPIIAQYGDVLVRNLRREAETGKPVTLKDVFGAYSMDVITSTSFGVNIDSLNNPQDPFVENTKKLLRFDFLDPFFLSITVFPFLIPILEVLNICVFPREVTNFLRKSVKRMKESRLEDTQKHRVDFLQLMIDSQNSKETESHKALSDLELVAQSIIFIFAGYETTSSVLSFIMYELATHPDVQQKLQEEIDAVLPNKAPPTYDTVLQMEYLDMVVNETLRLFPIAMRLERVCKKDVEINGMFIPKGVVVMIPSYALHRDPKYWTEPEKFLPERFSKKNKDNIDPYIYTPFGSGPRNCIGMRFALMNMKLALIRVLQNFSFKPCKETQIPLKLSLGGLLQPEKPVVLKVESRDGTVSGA
Summary of the method: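 Human liver microsomes (0.25 mg/mL) in 0.1 M phosphate pH 7.4 with a substrate cocktail (phenacetin 50 μM, diclofenac 10 μM, S-mephenytoin 100 μM, dextromethorphan 5 μM, midazolam 2.5 μM) and compound at 0 or 10 μM. Preincubated 5 min at 37 °C, then 15 min with NADPH system. Metabolites quantified by LC-MS/MS (MRM).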

[3] = Liver microsomal stability (human); assay type: in vitro ADME; details: amount of substrate remaining; 1 μM, 0.25 mg/mL microsomes, 37° C., 30 minutes
Summary of the method: (§1)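 Compound at 1 μM with microsomes (0.25 mg/mL each species) in 0.1 M phosphate buffer pH 7.4, preincubated 5 min at 37 °C, then 30 min at 37 °C after NADPH-generating system addition. Quenched with acetonitrile plus internal standard; remaining substrate measured by LC-MS/MS.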

[4] = Liver microsomal stability (dog); assay type: in vitro ADME; details: amount of substrate remaining; 1 μM, 0.25 mg/mL microsomes, 37° C., 30 minutes
Summary of the method: as §1

[5] = Liver microsomal stability (mouse); assay type: in vitro ADME; details: amount of substrate remaining; 1 μM, 0.25 mg/mL microsomes, 37° C., 30 minutes
Summary of the method: as §1

[6] = Pharmacokinetics in SD rat (plasma PK parameters); assay type: in vivo; details: for AUCall / clearance / half-life / Cmax / Tmax: SD rat plasma; for F: SD rat, PO 10 mg/kg versus IV
Protocol: Specifically, an SD rat of 7 to 8 weeks of age (Core Tech, Hana Trading Co., Ltd.) having a body weight of about 250 g to 300 g was purchased, and was managed in a simple breeding room for small animals set to a temperature of 22° C.±2° C., a relative humidity of 50%±5%, a lighting time of 12 hours (light up at 8:00 A.M., turn off at 8:00 P.M.), and an illuminance of 150 lux to 300 lux. During the entire test period, feed was freely provided, RO water was freely provided, and fasting was performed for 16 hours before the oral administration of a drug. After preparing a drug under the conditions shown in Table 5 below, the drug was intravenously injected (IV) or orally administered (PO). 500 µL of transfused blood was collected in a tube containing sodium heparin and centrifuged at 2° C. to 8° C. at 8,000 rpm for 6 minutes to obtain plasma from the blood. The obtained plasma was added to 180 μL of acetonitrile containing internal standard materials, vortexed, and then centrifuged at 15,000 rpm at 4° C. for 5 minutes to obtain a supernatant. The obtained supernatant was analyzed by LC-MS/MS.
Specific PK parameters were acquired using the Phoenix WinNonlin version 6.4 program (Phersight, USA) and wore calculated with a non-compartmental analysis model.

Row | Compound | IC50 [1] [nM] | inhibition effects of CYP coenzyme activity, CYP3A4 [2] | liver microsomal stability, Human (%) [3] [%] | liver microsomal stability, Dog (%) [4] [%] | liver microsomal stability, Mouse (%) [5] [%] | AUCall ([6]; IV 1 mg/kg) | clearance ([6]; IV 1 mg/kg) [mL/min/kg] | half-life ([6]; IV 1 mg/kg) [h] | AUCall ([6]; PO 10 mg/kg) | Cmax ([6]; PO 10 mg/kg) [ng/mL] | Tmax ([6]; PO 10 mg/kg) [h] | half-life ([6]; PO 10 mg/kg) [h] | F [6] [%] | AUCall ([6]; IV 2 mg/kg) | Cmax ([6]; IV 2 mg/kg) [ng/mL] | Tmax ([6]; IV 2 mg/kg) [h] | clearance ([6]; IV 2 mg/kg) [mL/min/kg] | half-life ([6]; IV 2 mg/kg) [h] | Cmax ([6]; IV 1 mg/kg) [ng/mL] | Tmax ([6]; IV 1 mg/kg) [h]
1 | N#CC(C#N)=NNc1ccc(-c2ncccn2)cc1 [Compound 1, (4-(pyrimidin-2-yl)phenyl)carbonohydrazonoyl dicyanide] | 490 | 89.4 | 44.1 | 5.7 | 86.1 | 7260.0 ± 580.1 hr, ng/mL | 11.5 ± 0.9 | 1.1 ± 1 | 4652.8 ± 1158.9 hr, ng/mL | 1840 ± 609 | 1.7 ± 2.9 | 1.6 ± 1.6 | 32 |  |  |  |  |  |  | 
2 | Cc1ncc(-c2ccc(NN=C(C#N)C#N)cc2)s1 [Compound 11, (4-(2-methylthiazol-5-yl)phenyl)carbonohydrazonoyl dicyanide] | 50 | 97.6 | 87.5 | 79.6 | 65.6 |  |  |  | 19169.2 hr, ng/mL | 6900 | 0.25 | 2.96 | 32.5 | 11800.37 hr, ng/mL | 10700 | 0.08 | 2.84 | 1.05 |  | 
3 | Cc1cnc(C(=O)Nc2nc3ccc(NN=C(C#N)C#N)cc3s2)cn1 [Compound 93, (2-(5-methylpyrazine-2-carboxamido)benzo[d]thiazol-6-yl)carbonohydrazonoyl dicyanide] | 60 | 91.5 | 83.9 | 60.4 | 37.3 | 6059.4 ± 548.0 hr, ng/mL | 2.7 ± 0.3 | 1.7 ± 0.1 | 13884.8 ± 3420.9 hr, ng/mL | 2570 ± 423 | 5 ± 1.2 |  | 22.9 |  |  |  |  |  |  | 
4 | N#CC(C#N)=NNc1ccc(-c2ncc(F)cn2)cc1 [Compound 2, (4-(5-fluoropyrimidin-2-yl)phenyl)carbonohydrazonoyl dicyanide] | 1300 | >100 | 92.7 | 92.1 | 6.4 | 7335.6 ± 1794.1 hr, ng/mL | 2.4 ± 0.7 | 1.2 ± 0.3 | 19890.5 ± 6049.3 hr, ng/mL |  |  |  | 27.1 |  |  |  |  |  | 4280 ± 1390 | 5.5 ± 1
5 | N#CC(C#N)=NNc1ccc(-c2cnc3ccnn3c2)cc1 [Compound 50, (4-(pyrazolo[1,5-a]pyrimidin-6-yl)phenyl)carbonohydrazonoyl dicyanide] | 730 | 95 | 81.1 | 88.9 | 89.5 | 8149.7 ± 1421.0 hr, ng/mL | 2 ± 0.3 | 1.9 ± 0.3 | 6726.6 ± 2700.2 hr, ng/mL | 1330 ± 788 | 5 ± 2 |  | 8.3 |  |  |  |  |  |  | 
